Data: patent US11884933B2, “Supported in vitro developed tissue culture and culturing methods” (IMBA—INSTITUT FÜR MOLEKULARE BIOTECHNOLOGIE GMBH, priority 2016, dated 2024)
Entries after “also recorded” stand apart in the source; their conditions may differ.

What was measured:
H1 spheroids = assay: Three day CHIR pulse in spheroids, germ layer staining; format: cell-based, human; details: 3-day CHIR pulse alone, day 40 spheroids
Experimental: Organoids were fixed in 4% paraformaldehyde for 20 min at room temperature and washed with PBS three times for 10 min each at room temperature before allowing to sink in 30% sucrose at 4° C. […] Statistical analysis of quantifications performed from imaging data was performed using Student's t-test for significance.

[1] = system: microfilament patterned organoids; assay: CHIR pulse after neuroepithelial budding in microfilament organoids; format: cell-based, human
Excerpt: At day 3, half media was changed with EB media without bFGF and Y-27632. On day 5, EBs were moved with an angled cut P200 tip to 24-well low-attachment plates (Sigma, cat. #CLS3473) with neural induction media (NI) as previously described in WO 2014/090993 A1 (incorporated herein by reference) (FIG. 1a, step 3). Media was changed every other day. On day 11, or when polarized neural ectoderm was visible on the surface, organoids were transferred to droplet of Matrigel as previously described in WO 2014/090993 A1 but kept in NI media (FIG. 1a, transition from step 3 to 4). At day 13 (2 days after Matrigel embedding), media was changed to an improved differentiation media-A (IDMA): 1:1 of DMEM/F12 and Neurobasal (Invitrogen, cat. #21103049), 0.5% N2 supplement (Invitrogen, cat. #17502048), 2% B27-vitamin A (Invitrogen, cat. #12587010), 0.25% insulin solution (Sigma, cat. #I9278-5ML), 50 μM 2-mercaptoethanol, 1% Glutamax, 0.5% MEM-NEAA, and 1% Penicillin-Streptomycin (Sigma, cat. *P0781). Additionally, CHIR 99021 (Tocris, cat. #4423) at 3 μM was added from day 13 to 16. Media was changed every other day and organoids were moved to a spinning bioreactor or orbital shaker as described previously in WO 2014/090993 A1, on day 18 (FIG. 1a, step 5). After moving to the shaker, media was changed every 3-4 days. Shaking speed was calculated based on the throw of the shaker. […]

H9 enCORs = assay: Cortical plate / basement membrane formation in enCORs with dissolved ECM components or GM6001; format: cell-based, human
Experimental: At day 20, media was changed to an improved differentiation+A (IDM+A): 1:1 of DMEM/F12 and Neurobasal, 0.5% N2 supplement, 2% B27+vitamin A, 0.25% insulin solution, 50 μM 2-mercaptoethanol, 1% Glutamax, 0.5% MEM-NEAA, 1% Penicillin-Streptomycin, 0.4 mM Vitamin C, and 1.49 g HEPES per 500 ml to control pH levels. Alternatively, media can be pH controlled with further bicarbonate buffering with the addition of 1 mg/ml sodium bicarbonate. At day 40, media was changed to IDM+A with 1 ml dissolved Matrigel per 50 ml media by slowly thawing the Matrigel on ice and addition to cold media to dissolve (FIG. 1a, step 6).
For treatment with matrix metalloprotease inhibitor GM6001 (Selleck Chemicals S7157), a final concentration of 3 μM was added beginning on day 30.

In the case of `Cc1c[nH]c(-c2cnc(NCCNc3ccc(C#N)cn3)nc2-c2ccc(Cl)cc2Cl)n1` [CHIR, CHIR99021], the “germ layer induction and organoid morphology” value (H1 spheroids) is reported as “did not influence germ layer induction or overall organoid morphology”, the neuroepithelial bud morphology ([1]; CHIR 3 μM, day 13 to 16, after Matrigel embedding) is reported as “larger, more continuous buds of neuroepithelium; also recorded: dramatic lateral expansion of neuroepithelial tissues and the generation of larger lumens with surrounding continuous neuroepithelium” and the “dorsal brain region identity staining (Emx1, Tbr1, Tbr2)” value ([1]; microfilament patterned organoids treated with CHIR) is reported as “all large lobes of brain tissue within microfilament patterned organoids treated with CHIR to be dorsal cortex; also recorded: large Emx1+ regions; also recorded: virtually all large regions stained positive for dorsal cortical markers Tbr1 and Tbr2”.
With `CNC(=O)[C@H](Cc1c[nH]c2ccccc12)NC(=O)[C@@H](CC(=O)NO)CC(C)C` [GM6001] the CP formation (H9 enCORs; GM6001 3 μM continuous from day 30, 60-day enCORs) was “no signs of CP formation; also recorded: did not result in CP formation by 60 days”.
In the case of `CCO` [ethanol], the “ethanol concentration in the media” value (150 mM dose, within a day) is reported as “approximately 60 mM”, the “course of ethanol concentration in the media” value (all doses tested) is reported as “progressive decrease in concentration over time” and the “equivalent blood alcohol content” value (equivalent of approximately 60 mM) is reported as 0.27 % by volume.
For laminin, the CP formation (H9 enCORs; dissolved laminin 35 μg/ml from day 40, 60-day enCORs) was “no evidence of CP formation; also recorded: did not recapitulate the extent of CP formation seen with Matrigel”.
